Measurements reported in patent US5266599A, “Use of (+)-1-[(3,4,5-trimethoxy)-benzyloxymethyl]-1-phenyl-N,N-dimethyl-n-propy lamine to increase gastric discharge in a subject” (priority 1989, dated 1993).
Entries after “also recorded” stand apart in the source; their conditions may differ. Structures can show the parent of a compound that is named as a salt. Where two headings read alike, the source gives them in different places.

What was measured:
mu receptor = experiment: Binding affinity to opiate receptor mu (inhibition of binding of a specific radioactive ligand); details: for IC50: read-out: CI50, inhibition of 50% of the binding of a specific radioactive ligand, mu receptor
delta receptor = biological target: T1, delta receptor (Cavia porcellus, UniProt A0A286XTF2); experiment: biochemical; details: CI50, inhibition of 50% of the binding of a specific radioactive ligand
T1 construct: from tissue

kappa receptor = biological target: T2, kappa receptor (Cavia porcellus, UniProt P41144); experiment: biochemical; details: CI50, inhibition of 50% of the binding of a specific radioactive ligand
T2 construct: from tissue

[1] = test system: abdominal cramps caused by acetic acid; experiment: Analgesic activity in vivo, abdominal cramps caused by intraperitoneal acetic acid (derived from Koster); parameters: species or system mice
[2] = test system: opiate receptors of the gastric mucous membrane; experiment: Effect of the products on the gastric evacuation of solids in dogs; format: in vivo; details: for Variation in % of gastric evacuation of solids: oral capsule, one hour after meal; for effect on gastric discharge of solids (in words): one hour after administration
Experimental: The principle of the test consists in measuring the gastric content of the animals one hour after eating a meal comprising 400 g of solid matter with 21.7% dry matter composed of:
and 20 g of sheeps liver containing radiolabelled cyanocobalamine. The meal is consumed within about 5 minutes by the animals. After one hour, the gastric content is collected by means of a small tube placed approximately 10 cm into the pyloris before the experiment.
The collected sample is weighed and homogenized. Its radioactivity is measured and the amount of the gastric discharge expressed in percentage is calculated according to the formula: [formula] in which: […]
In practice, each test is carried out on three dogs and consists in administering to them, 20 minutes before eating the meal described above, a capsule containing the test product at a dose of […] per kg animal weight or a capsule placebo which serves to determine the control phenomenon of the discharge on the animal. The 3 dogs receive each treatment twice in random order. […] The meal is presented and ingested 20 minutes after the capsule containing the test product has been administered. The evacuation values of the solid phases are measured as described before and compared using the test of Mann and Whitney (U test). The difference in comparison with the control values is considered significant when p is<or =0.05.
The effect of the test products is objectivised by the percentage variation calculated according to the relation: [formula]

[3] = Solubility, hygroscopicity and stability of the addition salt; details: D-(-) tartaric acid salt
[4] = test system: opiate receptors of the kappa type in the gastric mucous membrane; details: dog, in vivo, cited from earlier work
[5] = test system: opiate receptors mu, delta and kappa; format: binding
duodenum of the rat = experiment: tissue or blood; format: cell-based; details: for IC50: Rattus norvegicus
[6] = Acute toxicity, oral, in male mice; format: in vivo; details: mouse, in vivo, po, fourteen days
Experimental: (§1) This toxicity has been studied orally in male mice. The test products have been administered at the rate of 2 ml of their aqueous solution per 100 g of animal weight. The animals are then observed for 3 hours after administration, then daily for fourteen days, when they are sacrificed and then an autopsy is carried out.
(§2) The LD50 (lethal doses which cause the death of 50% of the animals) have been calculated according to the method of Reed J. L. and Muench H. (Am. J. Hyg. 1939, 27, p. 493).

mice = experiment: Acute toxicity, oral, in male mice; format: in vivo
Experimental: as §1, §2

gastric discharge = details: in vivo; cited from earlier work
[7] = mu receptor, racemates uncorrected
[8] = in vitro, compared with the (+) enantiomer or other receptors

T2 sequence (P41144 whole entry): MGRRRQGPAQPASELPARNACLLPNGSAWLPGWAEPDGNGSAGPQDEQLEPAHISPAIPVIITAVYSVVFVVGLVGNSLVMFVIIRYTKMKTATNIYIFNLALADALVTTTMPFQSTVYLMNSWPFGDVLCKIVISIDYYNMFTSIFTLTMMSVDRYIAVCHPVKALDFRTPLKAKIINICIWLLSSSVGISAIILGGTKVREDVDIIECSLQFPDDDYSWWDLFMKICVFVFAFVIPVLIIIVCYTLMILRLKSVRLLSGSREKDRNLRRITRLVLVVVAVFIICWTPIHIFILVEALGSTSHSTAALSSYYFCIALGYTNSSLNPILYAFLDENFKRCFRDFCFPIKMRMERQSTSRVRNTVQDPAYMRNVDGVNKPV
T1 sequence (A0A286XTF2 1-366): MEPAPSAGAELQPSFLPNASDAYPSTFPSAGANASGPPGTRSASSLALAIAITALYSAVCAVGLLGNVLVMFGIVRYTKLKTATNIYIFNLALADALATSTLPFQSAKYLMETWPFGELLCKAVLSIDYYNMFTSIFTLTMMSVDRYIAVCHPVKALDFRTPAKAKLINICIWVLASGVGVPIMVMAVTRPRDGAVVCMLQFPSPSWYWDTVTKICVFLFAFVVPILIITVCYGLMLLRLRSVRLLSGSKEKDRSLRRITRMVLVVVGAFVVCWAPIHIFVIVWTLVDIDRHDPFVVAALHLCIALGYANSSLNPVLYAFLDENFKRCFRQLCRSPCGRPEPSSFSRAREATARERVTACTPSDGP

For `CCC(COCc1ccc(OC)c(OC)c1)(c1ccccc1)N(C)C` (racemic) [Ex. 1 of U.S. Pat. No. 4,301,163, (+/-)1-[(3,4-dimethoxy)benzyloxymethyl]-1-phenyl-N,N-dimethyl-n-propylamine], the IC50 (mu receptor; [7]) was 1110 nM, the IC50 (delta receptor) was 7800 nM and the IC50 (kappa receptor) was 1110 nM.

For `CCC(COCc1ccccc1)(c1ccccc1)N(C)C` (racemic) [Ex. 3 of U.S. Pat. No. 4,301,163, (+/-)1-benzyloxymethyl-1-phenyl-N,N-dimethyl-n-propylamine], the “mu receptor affinity (in words)” value (mu receptor; [8]) was “just as, if not more active”, the IC50 (mu receptor; [7]) was 190 nM and the IC50 (delta receptor) was 14700 nM. The IC50 (kappa receptor) was 560 nM and the “% analgesia” value ([1]; 50 mg/kg, orally, mice) was 27.6%.

For `CCC(COCc1cc(OC)c(OC)c(OC)c1)(NC)c1ccccc1` (racemic) [Ex. 12 of U.S. Pat. No. 4,301,163], the “mu receptor affinity (in words)” value (mu receptor; [8]) was “just as, if not more active”, the IC50 (mu receptor; [7]) was 360 nM and the IC50 (delta receptor) was 2250 nM. For the same compound, the IC50 (kappa receptor) was 2280 nM, the “% analgesia” value ([1]; 50 mg/kg, orally, mice) was 44.0% and the “% analgesia, corrected for racemic compound (multiplied by two)” value ([1]; 50 mg/kg, orally, mice, racemate correction) was 88.0%.

With `COc1ccc(C(C)(COCc2ccc(Cl)cc2)N(C)C)cc1` (racemic) [Ex. 13 of U.S. Pat. No. 4,301,163, (+/-) 1-(p-chlorobenzyloxymethyl)-1-(p-methoxyphenyl)N,N-dimethyl-n-ethylamine] the “mu receptor affinity (in words)” value (mu receptor; [8]) was “just as, if not more active”, the IC50 (mu receptor; [7]) was 250 nM and the IC50 (delta receptor) was 4390 nM. For the same compound, the IC50 (kappa receptor) was 900 nM and the “% analgesia” value ([1]; 50 mg/kg, orally, mice) was 27.9%.

For `CCC(COC(=O)c1cc(OC)c(OC)c(OC)c1)(c1ccccc1)N(C)C` (racemic) [Trimebutine, (+/-)-2-dimethylamino-2-phenyl-n-butyl 3,4,5-trimethoxybenzoate], the “mu receptor affinity (in words)” value (mu receptor) was “just as, if not more active”, the IC50 (mu receptor) was 146 nM and the IC50 (delta receptor) was 1750 nM. For the same compound, the IC50 (kappa receptor) was 1460 nM, the “% analgesia” value ([1]; mouse, in vivo) was 24.3% and the “% analgesia, corrected for racemic compound (multiplied by two)” value ([1]; mouse, in vivo) was 48.6%. The “Variation in % of gastric evacuation of solids” value ([2]; 5 mg/kg) was -4%.

In the case of `CCC(COCc1cc(OC)c(OC)c(OC)c1)(c1ccccc1)N(C)C` (single isomer, unassigned) [D-(-) tartaric acid addition salt, (+) 1-[(3,4,5-trimethoxy)-benzyloxymethyl]-1-phenyl-N-N-dimethyl-n-propylamineD-(-)-tartrate], the “hygroscopicity (in words)” value [3] is reported as “without being hygroscopic”, the “physico-chemical stability (in words)” value [3] is reported as “physico-chemical stability necessary for its use” and the “solubility in water (in words)” value [3] is reported as “soluble in water”.

For `CCC1C2Cc3ccc(O)cc3C1(CC)CCN2Cc1ccoc1` (single isomer, unassigned) [MR 2266], the “inhibition of the gastric discharge effect of the product of the invention by the antagonist (in words)” value ([2]; intravenous antagonist) is listed as “inhibited” and the “inhibition of the gastric discharge effect of kappa agonists (in words)” value [4] is listed as “inhibited”.

`CCC(COCc1cc(OC)c(OC)c(OC)c1)(c1ccccc1)N(C)C` (single isomer, unassigned; (+)) [(+) Enantiomer, (+) 1-[(3,4,5-trimethoxy)benzyloxymethyl]-1-phenyl-N,N-dimethyl-n-propylamine] showed an IC50 (mu receptor; [7]) of 196 nM, an IC50 (delta receptor) of 540 nM and an IC50 (kappa receptor) of 232 nM. The “receptor binding affinity to mu, delta and kappa (in words)” value [5] was “shows a receptor binding affinity to the receptors mu, delta and kappa; also recorded: shows an "in vitro" affinity with the opiate receptors mu, delta and kappa; also recorded: showing an affinity to the three receptors studied, with a non-negligible intensity”, the “% analgesia” value ([1]; mouse, in vivo) was 17.6% and the “times less analgesic than the compound of Example 12 of the U.S. Patent” value ([1]; mouse, in vivo) was ~5 times. The “times less analgesic than the trimebutine” value ([1]; mouse, in vivo) was ~3 times, the “analgesic effect (in words)” value ([1]; mouse, in vivo, po) was “virtually without any analgesic effect; also recorded: does not have "in vivo", as one would expect it, a central analgesic activity; also recorded: very little analgesic effect” and the “Variation in % of gastric evacuation of solids, with MR 2266” value ([2]; 0.25 mg/kg oral + MR 2266 0.1 mg per kg intravenous) was “+14%”. For the same compound, the “Variation in % of gastric evacuation of solids, with naloxone” value ([2]; 0.25 mg/kg oral + naloxone 0.1 mg per kg intravenous) was “+5%”, the “Variation in % of gastric evacuation of solids” value ([2]; 0.25 mg/kg) was “+110%” and the “effect on gastric discharge of solids (in words)” value (“effect on gastric discharge” below) ([2]; listed as compound of the invention) was “increased discharge of solids in dogs”. The “effect on gastric discharge” value ([2]; listed as product of the invention) was “doubles the gastric evacuation of the solids; also recorded: clearly shows an activity which encourages gastric discharge of solids in dogs”, the “antispasmodic activity (in words)” value (duodenum of the rat) was “activity slightly above that of papaverine; also recorded: possesses an antispasmodic activity” and the IC50 (duodenum of the rat; read-out: molar concentration inhibiting 50% of the amplitude of spasms caused by barium chloride) was 17000 nM. For the same compound, the LD50 at 336 h [6] was 407 mg/kg and the “toxicity relative to the levorotatory antipode (in words)” value (mice) was “about half as toxic”.

Work on `CCC(COCc1cc(OC)c(OC)c(OC)c1)(c1ccccc1)N(C)C` (single isomer, unassigned; (-)) [(-) Enantiomer, (-) 1-[(3,4,5-trimethoxy)benzyloxymethyl]-1-phenyl-N,N-dimethyl-n-propylamine] yielded an IC50 (mu receptor; [7]) of 580 nM, an IC50 (delta receptor) of 12300 nM and an IC50 (kappa receptor) of 2630 nM. For the same compound, the “Variation in % of gastric evacuation of solids” value ([2]; 0.25 mg/kg) was “+26%”, the “effect on gastric discharge” value ([2]; listed as levorotatory enantiomer) was “four times less significant” and the LD50 (mice; fourteen days, 20160 min) was 255 mg/kg.

In the case of `CN1CC[C@]23c4c5ccc(O)c4O[C@H]2[C@@H](O)C=C[C@H]3[C@H]1C5` [Morphine], the “antispasmodic activity (in words)” value (duodenum of the rat; barium chloride, duodenum of the rat, in vitro) is reported as “inactive; also recorded: inactive at a concentration of more than 5 times greater than that of the product of the invention”.

With `COc1ccc(Cc2nccc3cc(OC)c(OC)cc23)cc1OC` [Papaverine] the IC50 (duodenum of the rat; read-out: IC50, inhibition of 50% of the amplitude of contractions) was 27400 nM.

For `CN1c2ccccc2C(c2ccccc2F)=NCC1CNC(=O)c1ccsc1` (stereo not shown) [Tifluadom], the “gastric discharge after oral administration (in words)” value ([4]; po) is given as “increased gastric discharge; also recorded: modify the gastric discharge by their local action”.

In the case of `CCN(CC)CCNC(=O)c1cc(Cl)c(N)cc1OC` [metoclopramide], the “gastric discharge (in words)” value (gastric discharge) is listed as “possesses this property”.
